Results taken from patent US20220257599A1, “METHODS USEFUL IN TREATING CANCERS HARBORING A KRAS OR HRAS MUTATION OR AMPLIFICATION” (Memorial Sloan Kettering Cancer Center, priority 2019, published 2022).

Legend:
iKRas cells [1] = assay: Intracellular endomembrane lipid nanosensor (reporter) assay, near-infrared hyperspectral microscopy; format: cell-based, mouse; conditions: for attenuation of lipid reporter response (lipid dysregulation) in iKRas cells: 50 nM during the 24 h induction period, order darapladib>rilapladib≈ML256>AA39-2; for lipid nanosensor response in iKRas relative to vector: pathway inhibitors, 500 nM, 24 h treated cultures
Description: Hyperspectral Microscopy. For lipid reporter imaging experiments, cells were plated on 35 mm glass bottom dishes (MatTek Corp. P35G-1.5-10-C) so that around 0.5-0.8E6 cells were present on assay day. 24 h prior to assay, cells were briefly rinsed with fresh media and cultured as described. On the day of the assay, test media was removed to a sterile Eppendorf, spun in a mini-fuge to pellet cellular debris, and stored at 37° C. Attached cells were briefly rinsed with Pulse media (serum-free complete medium), then exposed to nano-reporter (0.2 μg/mL in Pulse media) for 30 minutes. After exposure, excess nano-reporter was removed by rinsing in complete medium and the stored test media was re-added to the dish for the 5-h incubation period. Near-infrared hyperspectral microscopy^87 was performed on live attached cells to obtain fluorescence emission maps from endomembrane vesicles.^88 Briefly, a 730 nm continuous wave diode laser was pumped through fibers to a 100× oil objective to excite the fluorescent reporters inside attached cells. Collected emission was stored as a hyperspectral imaging cube of encoded wavelengths rectified between 1100 and 1200 nm. The center wavelength for each pixel in the cube was obtained by fitting a Lorentzian function in MATLAB. The center wavelength of the entire population of pixels in each cube, representing a 100× magnified imaging field, was fit with a Gaussian function in OriginPro 9.0. The resulting fit center wavelength values are reported.
To assess lipid dysregulation in live cells, the lipid nanosensor was introduced into the culture medium of RAS- or vector-transformed cell lines. Near-infrared hyperspectral microscopy was utilized to acquire the fluorescence spectra of the nanosensor spatially within iKRas, iHRas, eKRas, vector control cells, and MEFs harboring mutations in the parallel PI3K pathway. The data were fitted to determine the center wavelength of the nanosensor emission band, which was then mapped back over the brightfield images of the cells and plotted in a histogram. Using this method, the average sensor emission wavelength 24 h and 72 h after oncogenic RAS induction was measured.
Next measured was whether this intracellular reporter response was sensitive to sPLA2-mediated generation of lysophospholipids and related lipid species. Lipid accumulation was measured using the nanosensor 24 h after treating the cells with an array of PLA2 inhibitors.

eKRas cells = assay: Proliferation assay (attached cell number); format: cell-based, mouse; conditions: critical micelle concentrations, 10 μM of each lipid
Description: (§1) Proliferation Assays. To assay proliferation, 6E4 cells/well were plated in 6-well plates (ThermoFisher 140675) with complete medium to generate triplicate wells, per experimental condition, for Day 0 through Day 3/4. 6-8 h after seeding cells, wells were briefly rinsed with fresh medium and then cultured with the appropriately supplemented test medium. The Day 0 plate was counted at this time. Plates were counted at 24-h intervals. Attached and spread MEF's are >95% viable,^84 as confirmed by a lack of trypan blue staining or positive western blot for cleaved caspase 7 or PARP (data not shown). To count attached cells, media was aspirated from each well then rinsed, using manual agitation, twice in room temperature (RT) 1×HBSS (w/o Ca/Mg++). Attached cells were trypsinized with 1 mL TrypLE. An imaging cytometer (Thermo T10796; factory default settings) was loaded with chamber slides (ThermoFisher T10794) containing 24 μL of the trypsinized cell suspension. 18 fields were imaged; the cytometer output was given in cells/mL. […] An upper gating threshold was set at 34 μm to include size-doubling of the measured 17 μm average.
(§2) As sPLA2 enzyme isoforms have been described as both tumor suppressors and tumor promoters,^48, 49, 50, 51, 52, 53 iKRas cells were interrogated using two representative lipids—a group 7 sPLA2 substrate, and a product. First, the vector control cells were incubated with increasing concentrations of 16:0 lysoPC, a group 7 sPLA2 product, and 16:0 methylcarbamyl PAF (cPAF), a substrate. […] Therefore, in the vector control cells, intracellular accumulation of the group 7 sPLA2 product affected proliferation to a greater extent than the enzyme substrate. […] In addition, eKRas cells were much more sensitive to the substrate lipid absent significant RAS-related damage or group 7 activity.

iKRas cells [2] = assay: Proliferation assay (attached cell number); format: cell-based, mouse; conditions: critical micelle concentrations, 10 μM of each lipid
Description: as §1, §2

vector control cells = assay: Proliferation assay (attached cell number); format: cell-based, mouse; conditions: increasing lipid concentrations spiked into culture medium; lysoPC effect near its CMC, cPAF at sub-critical and critical micelle concentrations
Description: as §1, §2

[3] = system: phospho-ERK and p21^waf1/cip1; assay: Immunoblot of vector/iKRas cell lysates; format: cell-based, mouse; conditions: vector and iKRas cells, 24 h exposure to 10 μM lipid
PAF receptor (PAF-R) = assay: Immunoblot for the PAF receptor; format: cell-based, mouse; conditions: vector cells, 24 h exposure to 10 μM lipid
[4] = system: syngeneic KrasG12D/+; Trp53−/− (KP) transplant model of non-small cell lung cancer; assay: In vivo survival study; set-up: species or system mouse
Description: In vivo survival study. To generate the syngeneic KP transplant lung cancer model, a cell line derived from a KrasG12D/+; Trp53−/−(KP) GEMM lung tumor was infected with a retroviral luciferase (Luc)-GFP construct, and 5000 KP tumor cells resuspended in 400 μL of PBS were tail vein injected into 7 week old Female C57BL/6 mice.^90 Mice were randomized into various study cohorts before treatment with vehicle or darapladib. Treatments were administered by oral gavage once per day, Monday through Friday. […] Bioluminescence positive mice remained in the study while bioluminescence negative mice were euthanized, and their lungs were harvested for histology. Tissues were rinsed and fixed in 4° C. buffered 4% paraformaldehyde for 24-48 hours and moved to 4° C. 70% ethanol for long term storage, embedding, sectioning, and staining (H&E, anti-GFP primary antibody, anti-Ki-67 primary antibody). […] Tissues negative for histological dysplasia were excluded from final study analysis; tissues positive for histological dysplasia were kept in the final study analysis. Each cohort's N value was adjusted to reflect histology results before final analysis. […]
The inventors next assessed whether group 7 inhibition would impact the development of a RAS-harboring murine cancer model. […]

[5] = depending on the cell type and downstream marker used; read-out: reported EC50; cited from earlier work
[6] = cited from earlier work
iKRas cells [7] = assay: Lipidomics (LC-MS) after inhibitor treatment; conditions: iKRas cells treated with darapladib; especially lysoPC, also lysoPE, lysoPI, lysoPS
Description: Lipidomics and Analysis. 100 mm plates were seeded, grown, and induced so that on the day of harvest dishes were 90-100% confluent. Culture medium was Phenol red-free. To harvest conditioned media, the full volume was moved to a glass vial on dry ice/alcohol slurry and a fresh cold PBS volume equal to ¼ of the collected volume was used to rinse the cells; this volume was collected and pooled. To harvest lysate, a separate dish of cells was washed three times with cold HBSS; on the last wash, liquid was aspirated, and the dish was placed onto the dry ice/alcohol slurry to freeze for 30 seconds. 1 mL of a 2:0.8 parts methanol:water mix (chilled to −80° C. and stored on dry ice) was added to the plate. The dish was immediately moved to wet ice and scrapped with a rubber policeman. Lysate was pooled in the bottom of the dish, and then transferred to a glass vial on dry ice until −80° C. storage. The lysate extract vials were briefly flushed with nitrogen gas. […] Quantitation used an MRM method under positive and negative electrospray modes. Raw data was reported as Mol %, or ng/mL of the lipid species normalized to the absolute total lipid abundance (ng/mL) detected by the mass spectrometer. Reported data is Mol % divided by the total adherent cell count from a parallel-treated plate, calculated as a Fold change versus control: (iKRas/Vector)-1.

[8] = system: RAS harboring lines (iKRas cells and cell lines derived from lung, pancreas, and colorectal tumors); assay: Cell viability after darapladib treatment (CellTiter-Glo); conditions: 48 h incubation
Description: (§3) 5,000 cells/well of doxycycline induced iKRas or target mouse/human cells were seeded in 96-well plates 1 day prior to the start of treatment. On the day of the experiment, increasing concentrations of darapladib were added in triplicate to the conditioned media. After incubation for 48 h, the cell viability was assessed using the CellTiter-Glo® luminescent assay (Promega G9681). Prior to use, reconstituted kit reagent was equilibrated to room temperature. To initiate cell lysis, 50 μL of reagent was added to each well. Plates were incubated for 10 minutes at room temperature with gentle mixing on an orbital shaker. Luminescence was measured using a Tecan Infinite M1000 Pro plate reader (Tecan Group Ltd.).

[9] = system: RAW 264.7 murine macrophages; assay: as above; conditions: 48 h incubation
Description: as §3

[10] = system: eKRas versus wildtype SV40 MEFs; assay: as above; conditions: sigmoidal dose-response
Description: as §3

vector line = assay: Intracellular endomembrane lipid nanosensor (reporter) assay, near-infrared hyperspectral microscopy; conditions: 24 h with 100 nM dexamethasone salt
Description: For lipid reporter imaging experiments, cells were plated on 35 mm glass bottom dishes (MatTek Corp. P35G-1.5-10-C) so that around 0.5-0.8E6 cells were present on assay day. 24 h prior to assay, cells were briefly rinsed with fresh media and cultured as described. On the day of the assay, test media was removed to a sterile Eppendorf, spun in a mini-fuge to pellet cellular debris, and stored at 37° C. Attached cells were briefly rinsed with Pulse media (serum-free complete medium), then exposed to nano-reporter (0.2 μg/mL in Pulse media) for 30 minutes. After exposure, excess nano-reporter was removed by rinsing in complete medium and the stored test media was re-added to the dish for the 5-h incubation period. Near-infrared hyperspectral microscopy^87 was performed on live attached cells to obtain fluorescence emission maps from endomembrane vesicles.^88 Briefly, a 730 nm continuous wave diode laser was pumped through fibers to a 100× oil objective to excite the fluorescent reporters inside attached cells. Collected emission was stored as a hyperspectral imaging cube of encoded wavelengths rectified between 1100 and 1200 nm. The center wavelength for each pixel in the cube was obtained by fitting a Lorentzian function in MATLAB. […]

[11] = 20 nM during the 24 h induction period

O=C(N1CCCC1)n1ncc(-c2ccc(-c3ccccc3)cc2)n1 [AA39-2]
attenuation of lipid reporter response (lipid dysregulation) in iKRas cells (iKRas cells [1]): attenuated the reporter response

O=C1O/C(=C/Br)CCC1c1cccc2ccccc12 (stereo not drawn) [BEL]
attenuation of lipid reporter response in iKRas cells (iKRas cells [1]; 75 nM during the 24 h induction period): unable to attenuate the lipid reporter response

Cn1nccc1Nc1nccc(-c2ccn([C@H](CO)c3ccc(Cl)c(F)c3)c(=O)c2)n1 [GDC-0994]
lipid nanosensor response in iKRas relative to vector (iKRas cells [1]): significantly diminished

CCCCCCCCCCCCCCCCOCC(COCC(F)(F)F)OP(=O)(O)OC (stereo not drawn) [MJ-33]
attenuation of lipid reporter response in iKRas cells (iKRas cells [1]; [11]): unable to attenuate the lipid reporter response

Cc1cc(N2CCN(C(=O)Oc3ccc(-c4ccccc4)cn3)CC2)c2ccccc2n1 [ML256]
attenuation of lipid reporter response (lipid dysregulation) in iKRas cells (iKRas cells [1]): attenuated the reporter response

N#Cc1c(Oc2ccc(F)c(NC(=O)Cc3cccc(C(F)(F)F)c3)c2)ccc2nc(NC(=O)C3CC3)sc12 [TAK-632]
lipid nanosensor response in iKRas relative to vector (iKRas cells [1]): significantly diminished

CC(C)OC(=O)c1ccc(N2C(=O)C(Cl)=C(Cl)C2=O)cc1 [TSI-01]
attenuation of lipid reporter response in iKRas cells (iKRas cells [1]; 1 μM during the 24 h induction period): unable to attenuate the lipid reporter response

Cc1c(C)c2c(c(C)c1O)CC[C@@](C)(CCC[C@H](C)CCC[C@H](C)CCCC(C)C)O2 [Vitamin E, α-tocopherol]
reporter response in iKRas cells (iKRas cells [1]; 20 μM ±-α-tocopherol during the 24 h induction period): abrogated

CCCCCCCCCCCCCCCCOC[C@H](COP(=O)([O-])OCC[N+](C)(C)C)OC(=O)NC [cPAF, 16:0 methylcarbamyl PAF]
effect on eKRas cell proliferation (eKRas cells): potent arresting effect
effect on iKRas cell proliferation (iKRas cells [2]): potent arresting effect
vector control cell proliferation (vector control cells): mild stimulatory effect
phospho-ERK and p21^waf1/cip1 expression [3]: increased
PAF-R expression (PAF receptor (PAF-R)): downregulated

CCN(CC)CCN(Cc1ccc(-c2ccc(C(F)(F)F)cc2)cc1)C(=O)Cn1c(SCc2ccc(F)cc2)nc(=O)c2c1CCC2 [darapladib]
attenuation of lipid reporter response (lipid dysregulation) in iKRas cells (iKRas cells [1]): attenuated the reporter response
lung cancer-associated death and morbidity ([4]; 10 mg/kg daily oral gavage starting on Day 1 or Day 6, C57BL/6 mice): significant delay
survival in Kras^G12D/+/p53^−/− lung cancer model in mice ([4]; mouse, in vivo): prolonged survival
EC50 [5]: 10 to 1000 nM
safety in vivo [6]: safe and apparently side-effect-free
cardiovascular clinical endpoint, Phase 3 trials ([6]; in vivo): failing to meet its intended cardiovascular clinical endpoint
lysophospholipid levels (lipidomics) (iKRas cells [7]): significant attenuation
viability of RAS harboring lines [8]: died at low micromolar concentrations
viability of RAW 264.7 control cell line [9]: largely unaffected
potency at killing eKRas versus wildtype cells [10]: twice as potent

C[C@@H]1C[C@H]2[C@@H]3CCC4=CC(=O)C=C[C@]4(C)[C@@]3(F)[C@@H](O)C[C@]2(C)[C@@]1(O)C(=O)CO [dexamethasone]
reporter response in the vector line (vector line): increased the reporter response

CCCCCCCCCCCCCCCC(=O)OC[C@@H](O)COP(=O)([O-])OCC[N+](C)(C)C [lysoPC, 16:0 lysoPC]
effect on eKRas cell proliferation (eKRas cells): negligible arresting effect or a reduced arresting effect
effect on iKRas cell proliferation (iKRas cells [2]): negligible arresting effect or a reduced arresting effect
vector control cell proliferation (vector control cells): arrested
phospho-ERK and p21^waf1/cip1 expression [3]: not

COCCN1CCC(N(Cc2ccc(-c3ccc(C(F)(F)F)cc3)cc2)C(=O)Cn2c(SCc3cccc(F)c3F)cc(=O)c3ccccc32)CC1 [rilapladib]
attenuation of lipid reporter response (lipid dysregulation) in iKRas cells (iKRas cells [1]): attenuated the reporter response

CCc1c(C(=O)C(N)=O)c2c(OCC(=O)O)cccc2n1Cc1ccccc1 [varespladib]
attenuation of lipid reporter response in iKRas cells (iKRas cells [1]; [11]): unable to attenuate the lipid reporter response
